Counter-ions that a name gives are not always drawn. Like-named read-outs stand apart in the source and are kept apart here.
Molecular target: RIPK1 (recombinant GST-RIPK1 kinase domain, residues 1-327) (Homo sapiens (Human), UniProt Q13546)
Assay: RIPK1-ADP-Glo Enzymatic Assay
Format: biochemical
Conditions: 25 nM GST-RIPK1, 300 μM ATP, assay lower limit ~25 nM
Summary of the method: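 Using dephosphorylated MBP (3 μM) as substrate and 300 μM ATP, 25 nM baculovirus-produced enzyme was reacted for 150 min after a 30-min compound pre-incubation. Luminescent ADP detection followed; lower confidence limit ~25 nM.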

[1] = ADP-Glo, read-out: RIPK1 V0 Ec50

RIPK1 (recombinant GST-RIPK1 kinase domain, residues 1-327), sequence (Q13546 1-327): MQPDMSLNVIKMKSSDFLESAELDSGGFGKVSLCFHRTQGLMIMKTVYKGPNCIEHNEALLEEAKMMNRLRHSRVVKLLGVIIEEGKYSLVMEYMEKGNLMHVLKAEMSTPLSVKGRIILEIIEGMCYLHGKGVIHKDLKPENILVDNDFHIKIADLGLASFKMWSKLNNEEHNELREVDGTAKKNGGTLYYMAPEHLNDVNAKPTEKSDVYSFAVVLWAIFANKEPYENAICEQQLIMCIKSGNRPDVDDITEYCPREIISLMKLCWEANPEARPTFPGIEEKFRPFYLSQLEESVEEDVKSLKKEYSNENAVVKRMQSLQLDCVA

| EC50 [1] | Compound | EC50 (RIPK1 V0 Ec50, ADP-Glo) |
| --- | --- | --- |
| 457 nM | Cc1ccccc1[C@@H]1CC[C@H]2OC3(CCN(C(=O)c4ccccc4)CC3)C(=O)N21 [Example 6.135, (5′S,7a′R)-1-(benzene-carbonyl)-5′-(2-meth-ylphenyl)tetrahydro-3′H-spiro[piperidine-4,2′-pyrrolo[2,1-b] [1,3]oxazol]-3′-one] |  |
| 154 nM | COc1ncccc1C(=O)N1CCC2(CC1)O[C@@H]1CC[C@@H](c3cc(F)cc(F)c3)N1C2=O [Example 6.18, (5′S,7a′R)-5′-(3,5-difluorophenyl)-1-(2-methoxypyridine-3-carbonyl)tetrahydro-3′H-spiro[piperidine-4,2′-pyrrolo[2,1-b] [1,3]oxazol]-3′-one] |  |
| 47.5 nM | N#Cc1cccc(C(=O)N2CCC3(CC2)O[C@@H]2CC[C@@H](c4cccc(F)c4)N2C3=O)c1F [Example 6.122, 2-fluoro-3-[(5′S,7a′R)-5′-(3-fluorophenyl)-3′-oxotetrahydro-1H,3′H-spiro[piperi-dine-4,2′-pyrrolo[2,1-b][1,3]oxazole]-1-carbonyl]benzonitrile] |  |
|  | N#Cc1ccc(N2CCC3(CC2)O[C@@H]2CC[C@@H](c4cc(F)cc(F)c4)N2C3=O)cc1Cl [Example 4.20, 2-chloro-4-[(5′S,7a′R)-5′-(3,5-difluorophenyl)-3′-oxotetrahydro-1H,3′H-spiro[piperidine-4,2′-pyrrolo[2,1-b] [1,3]oxazol]-1-yl]benzonitrile] | < 25 nM |
| 348 nM | O=C1N2[C@@H](CC[C@H]2c2ccccc2F)OC12CN(CCc1ccccc1)C2 [Example 22.8, (5′S,7a′R)-5′-(2-fluorophenyl)-1-(2-phenylethyl)tetrahydro-3′H-spiro[azetidine-3,2′-pyrrolo[2,1-b][1,3]oxazol]-3′-one] |  |
| < 25 nM | O=C1N2[C@@H](CC[C@H]2c2ccccc2)OC12CCN(c1cccc3ncnn13)CC2F (single isomer, unassigned) [Example 13.17, (3[R or S], 4[S or R], 5′S,7a′R)-1-([1,2,4]triazolo[1,5-a]pyridin-5-yl)-3-fluoro-5′-phenyltetrahydro-3′H-spiro[piperidine-4,2′-pyrrolo[2,1-b]oxazol]-3′-one, TFA salt] |  |
| 706 nM | COc1ccnc(C(=O)N2CCC3(CC2)O[C@@H]2CC[C@@H](c4cc(F)cc(F)c4)N2C3=O)c1 [Example 6.91, (5′S,7a′R)-5′-(3,5-difluorophenyl)-1-(4-methoxypyridine-2-carbonyl)tetrahydro-3′H-spiro[piperidine-4,2′-pyrrolo[2,1-b] [1,3]oxazol]-3′-one] |  |
| < 25 nM | O=C(c1cc(F)ccc1F)N1CCC2(CC1)O[C@@H]1CC[C@@H](c3cccc(F)c3)N1C2=O [Example 1.6, (5′S,7a′R)-1-(2,5-difluorobenzene-1-carbonyl)-5′-(3-fluorophenyl)tetrahydro-3′H-spiro[piperidine-4,2′-pyrrolo[2,1-b] [1,3]oxazol]-3′-one] |  |
| 45.3 nM | O=C(c1cc2ccccc2o1)N1CCC2(CC1)O[C@@H]1CC[C@@H](c3cc(F)cc(F)c3)N1C2=O [Example 5.69] |  |
| 757 nM | O=C1N2[C@@H](CC[C@H]2c2ccccc2)OC12CCN(c1nnc(C(F)(F)F)s1)CC2 [Example 11.27, (5′S,7a′R)-5′-phenyl-1-[5-(trifluoromethyl)-1,3,4-thiadiazol-2-yl]tetrahydro-3′H-spiro[piperidine-4,2′-pyrrolo[2,1-b][1,3]oxazol]-3′-one] |  |
| < 25 nM | O=C1N2[C@@H](CC[C@H]2c2ccccc2F)OC12CCN(c1cc(Cl)ncn1)CC2 [Example 4.99, (5′S,7a′R)-1-(6-chloropyrimidin-4-yl)-5′-(2-fluorophenyl)tetrahydro-3′H-spiro[piperidine-4,2′-pyrrolo[2,1-b]oxazol]-3′-one] |  |

| Compound | EC50 [1] | EC50 (RIPK1 V0 Ec50, ADP-Glo) |
| --- | --- | --- |
| O=C1N2[C@@H](CC[C@H]2c2cc(F)cc(F)c2)OC12CCN(c1ccc(Cl)c3ccnn13)CC2 [Example 15.1, (5′S,7a′R)-1-(4-chloropyrazolo[1,5-a]pyridin-7-yl)-5′-(3,5-difluorophenyl)tetrahydro-3′H-spiro[piperidine-4,2′-pyrrolo[2,1-b]oxazol]-3′-one, TFA] | < 25 nM |  |

From US12180226B2, “Spirotricycle RIPK1 inhibitors and methods of uses thereof” (Merck Sharp & Dohme LLC, priority 2021, dated 2024)
